≈ marks a conversion by molar mass, not a printed value. Calls of active or inactive are those of the source. The calls are words filed in the database; no cut-off is given here.
Tests used:
[1] = test system: Mycobacterium tuberculosis; assay: Antibacterial activity against Mycobacterium tuberculosis mc2 6230 assessed as bacterial growth inhibition measured after 6 days by alamarblue dye based assay; format: functional; details: mc2 6230, 144 h, time 6 day
[2] = test system: Mycobacterium tuberculosis; assay: Antibacterial activity against Mycobacterium tuberculosis mc2 6230 K204 assessed as bacterial growth inhibition measured after 6 days by alamarblue dye based assay; format: functional; details: mc2 6230 K204, 144 h, time 6 day
[3] = test system: Mycobacterium tuberculosis; assay: Antibacterial activity against Mycobacterium tuberculosis mc2 6230 assessed as bacterial growth inhibition incubated 2 to 3 weeks by resazurin dye based assay; format: functional; details: time 2-3 weeks
[4] = test system: Mycobacterium tuberculosis; assay: Antibacterial activity against Mycobacterium tuberculosis H37Rv assessed as bacterial growth inhibition measured after 6 days by alamarblue dye based assay; format: functional; details: 144 h, time 6 day
[5] = test system: Mycobacterium avium; assay: Antibacterial activity against Mycobacterium avium ATCC 25291 assessed as bacterial growth inhibition incubated for 2 to 3 weeks by resazurin dye based assay; format: functional; details: time 2-3 weeks
[6] = test system: Mycobacterium intracellulare; assay: Antibacterial activity against Mycobacterium intracellulare ATCC 13950 assessed as bacterial growth inhibition incubated for 2 to 3 weeks by resazurin dye based assay; format: functional; details: time 2-3 weeks
[7] = target: T1, N-acetyltransferase Eis (Mycobacterium tuberculosis (strain ATCC 25618 / H37Rv), UniProt P9WFK7); assay: Inhibition of wild-type Mycobacterium tuberculosis Eis expressed in Escherichia coli BL21(DE3) cells incubated for 5 mins by Ellman's method
T1 sequence (P9WFK7 whole entry): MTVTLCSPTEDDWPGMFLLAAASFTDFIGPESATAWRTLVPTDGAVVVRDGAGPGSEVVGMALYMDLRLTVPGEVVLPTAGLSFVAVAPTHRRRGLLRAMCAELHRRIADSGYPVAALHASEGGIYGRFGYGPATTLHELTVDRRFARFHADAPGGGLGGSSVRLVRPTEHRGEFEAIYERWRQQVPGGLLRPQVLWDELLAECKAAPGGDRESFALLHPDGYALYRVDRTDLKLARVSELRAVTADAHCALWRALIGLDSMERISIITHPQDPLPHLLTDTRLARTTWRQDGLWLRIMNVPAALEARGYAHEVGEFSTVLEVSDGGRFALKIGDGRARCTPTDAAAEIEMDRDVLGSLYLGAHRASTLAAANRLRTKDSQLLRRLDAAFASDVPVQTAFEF

[8] = test system: Mycobacteroides abscessus; assay: Antibacterial activity against Mycobacterium abscessus ATCC 19977 assessed as bacterial growth inhibition incubated for 2 to 3 weeks by resazurin dye based assay; format: functional; details: time 2-3 weeks
[9] = test system: Mycobacterium parascrofulaceum; assay: Antibacterial activity against Mycobacterium parascrofulaceum ATCC BAA-614 assessed as bacterial growth inhibition incubated for 2 to 3 weeks by resazurin dye based assay; format: functional; details: time 2-3 weeks
[10] = test system: Mycobacterium tuberculosis; assay: Antibacterial activity against Mycobacterium tuberculosis H37Rv assessed as MIC of kanamycin A at 7.9 uM incubated for 24 hrs followed by kanamycin A addition measured after 6 days by alamarblue dye based assay; format: functional; details: 168 h, time 7 day
[11] = test system: Mycobacterium tuberculosis; assay: Antibacterial activity against Mycobacterium tuberculosis H37Ra assessed as bacterial growth inhibition incubated 2 to 3 weeks by resazurin dye based assay; format: functional; details: time 2-3 weeks
[12] = test system: Mycobacterium tuberculosis; assay: Antibacterial activity against Mycobacterium tuberculosis H37Rv assessed as MIC of kanamycin A at 43.8 uM incubated for 24 hrs followed by kanamycin A addition measured after 6 days by alamarblue dye based assay; format: functional; details: 168 h, time 7 day
[13] = test system: Mycobacterium tuberculosis; assay: Antibacterial activity against Mycobacterium tuberculosis H37Rv assessed as MIC of kanamycin A at 6.3 uM incubated for 24 hrs followed by kanamycin A addition measured after 6 days by alamarblue dye based assay; format: functional; details: 168 h, time 7 day
[14] = test system: Mycolicibacterium smegmatis; assay: Antibacterial activity against Mycobacterium smegmatis mc2 122 assessed as bacterial growth inhibition incubated for 2 to 3 weeks by resazurin dye based assay; format: functional; details: time 2-3 weeks
[15] = test system: Mycobacterium tuberculosis; assay: Antibacterial activity against Mycobacterium tuberculosis H37Rv assessed as MIC of kanamycin A at 100 uM incubated for 24 hrs followed by kanamycin A addition measured after 6 days by alamarblue dye based assay; format: functional; details: time 7.0 day
[16] = test system: J774.1; assay: Cytotoxicity against mouse J774.1 cells at 200 uM incubated for 24 hrs by resazurin dye based cell viability assay; format: toxicity; details: j774.1, 24 h
[17] = test system: Mycobacterium tuberculosis; assay: Antibacterial activity against Mycobacterium tuberculosis H37Rv assessed as MIC of kanamycin A at 106 uM incubated for 24 hrs followed by kanamycin A addition measured after 6 days by alamarblue dye based assay; format: functional, organism-based; details: time 7.0 day
[18] = test system: HEK293; assay: Cytotoxicity against HEK293 cells upto 12.5 uM incubated for 24 hrs by resazurin dye based cell viability assay; format: toxicity; details: human, hek293, 24 h
[19] = test system: J774.1; assay: Cytotoxicity against mouse J774.1 cells upto 12.5 uM incubated for 24 hrs by resazurin dye based cell viability assay; format: toxicity; details: j774.1, 24 h
[20] = test system: Mycobacterium tuberculosis; assay: Antibacterial activity against Mycobacterium tuberculosis K204 assessed as MIC of kanamycin A at 106 uM incubated for 24 hrs followed by kanamycin A addition measured after 6 days by alamarblue dye based assay; format: functional, organism-based; details: time 7.0 day
[21] = test system: A549; assay: Cytotoxicity against human A549 cells at 200 uM incubated for 24 hrs by resazurin dye based cell viability assay; format: toxicity; details: a549, 24 h
[22] = test system: HEK293; assay: Cytotoxicity against HEK293 cells at 200 uM incubated for 24 hrs by resazurin dye based cell viability assay; format: toxicity; details: human, hek293, 24 h
[23] = test system: A549; assay: Cytotoxicity against human A549 cells upto 12.5 uM incubated for 24 hrs by resazurin dye based cell viability assay; format: toxicity; details: a549, 24 h
[24] = test system: Mycobacterium tuberculosis; assay: Antibacterial activity against Mycobacterium tuberculosis mc2 6230 K204 assessed as MIC of kanamycin A at 25 uM incubated for 24 hrs followed by kanamycin A addition measured after 6 days by alamarblue dye based assay; format: functional; details: time 7 day
[25] = test system: Mycobacterium tuberculosis; assay: Antibacterial activity against Mycobacterium tuberculosis H37Rv assessed as MIC of kanamycin A at 27.5 uM incubated for 24 hrs followed by kanamycin A addition measured after 6 days by alamarblue dye based assay; format: functional; details: 168 h, time 7 day
[26] = test system: Mycobacterium tuberculosis; assay: Antibacterial activity against Mycobacterium tuberculosis mc2 6230 assessed as MIC of kanamycin A at 25 uM incubated for 24 hrs followed by kanamycin A addition measured after 6 days by alamarblue dye based assay; format: functional; details: mc2 6230, 168 h, time 7 day
[27] = test system: Mycobacterium tuberculosis; assay: Antibacterial activity against Mycobacterium tuberculosis K204 assessed as MIC of kanamycin A at 55.8 uM incubated for 24 hrs followed by kanamycin A addition measured after 6 days by alamarblue dye based assay; format: functional; details: K204, 168 h, time 7 day
[28] = test system: Mycobacterium tuberculosis; assay: Antibacterial activity against Mycobacterium tuberculosis H37Rv assessed as MIC of kanamycin A at 55.8 uM incubated for 24 hrs followed by kanamycin A addition measured after 6 days by alamarblue dye based assay; format: functional; details: 168 h, time 7 day
[29] = target: T1, N-acetyltransferase Eis; assay: Binding affinity to wild-type Mycobacterium tuberculosis Eis expressed in Escherichia coli BL21(DE3) cells assessed as inhibition constant incubated for 5 mins by Ellman's method based Michaelis-Menten analysis

Which MIC [1] does the source give for `NC[C@H]1O[C@H](O[C@H]2[C@H](O)[C@@H](O[C@H]3O[C@H](CO)[C@@H](O)[C@H](N)[C@H]3O)[C@H](N)C[C@@H]2N)[C@H](O)[C@@H](O)[C@@H]1O` [KANAMYCIN] here?
Its MIC is less than 1.25 µM.

And the MIC [2]?
Its MIC is 320 µM (≈ 155 µg/mL).

What about the MIC [3] of the same compound?
The MIC was less than 1.25 µM.

What about the MIC [4] of the same compound?
Its MIC is 1.25 µg/mL (≈ 2.58 µM).

`Clc1cccc(COc2ccccc2CNCc2cccnc2)c1` was tested. Which MIC [3] did it give?
The MIC was 100 µM (≈ 33.9 µg/mL).

What about the MIC [5] of the same compound?
The MIC was greater than 62.5 µM.

What about the MIC [6] of the same compound?
Its MIC is greater than 62.5 µM.

And the IC50 [7]?
The IC50 was 4200 nM.

What about the MIC [8] of the same compound?
The MIC was greater than 62.5 µM.

What about the MIC [9] of the same compound?
The MIC was greater than 62.5 µM.

What about the MIC [10] of the same compound?
The MIC was 7.9 µg/mL.

What does the source list for `Fc1ccc(COc2ccccc2CNCc2ccncc2)cc1`?
MIC [11]: > 250 µM; MIC [3]: 50 µM (≈ 16.1 µg/mL); MIC [12]: 2.5 µg/mL; IC50 [7]: ~100000 nM

What does the source list for `Clc1ccc(COc2cccc(CNCc3cccnc3)c2)cc1`?
MIC [11]: 15.6 µM (≈ 5.29 µg/mL); MIC [3]: 50 µM (≈ 16.9 µg/mL); MIC [13]: 2.5 µg/mL; MIC [5]: > 62.5 µM; MIC [6]: 31.3 µM (≈ 10.6 µg/mL); IC50 [7]: 2500 nM; MIC [14]: 31.3 µM (≈ 10.6 µg/mL)

What does the source list for `Clc1ccc(COc2ccc(CNCc3ccncc3)cc2)cc1`?
Activity [15]: Active; MIC [11]: 3.9 µM (≈ 1.32 µg/mL); Activity [16]: Toxic; MIC [3]: 25 µM (≈ 8.47 µg/mL); Activity [17]: Active; MIC [5]: > 62.5 µM; MIC [6]: 2 µM (≈ 0.678 µg/mL); Activity [18]: Non-Toxic; IC50 [7]: 2000 nM; Activity [19]: Non-Toxic; Activity [20]: Active; Activity [21]: Toxic; Activity [22]: Toxic; MIC [8]: 62.5 µM (≈ 21.2 µg/mL); Activity [23]: Non-Toxic

`Clc1ccc(COc2ccc(CNCc3cccnc3)cc2)cc1` was tested. Which MIC [11] did it give?
The MIC was 31.3 µM (≈ 10.6 µg/mL).

And the MIC ([24]; Mycobacterium tuberculosis, mc2 6230 K204, 168 h, read-out: MIC)?
Its MIC is no more than 1.25 µM.

And the MIC [3]?
Its MIC is 50 µM (≈ 16.9 µg/mL).

What about the MIC [5] of the same compound?
Its MIC is greater than 62.5 µM.

What about the MIC [6] of the same compound?
The MIC was 15.6 µM (≈ 5.29 µg/mL).

And the IC50 [7]?
The IC50 was 2900 nM.

And the MIC [25]?
The MIC was no more than 1.25 µg/mL.

What about the MIC [26] of the same compound?
Its MIC is less than 1.25 µM.

And the MIC [8]?
The MIC was greater than 62.5 µM.

Which MIC [11] does the source give for `Clc1ccc(COc2ccccc2CNCc2ccncc2)cc1` here?
The MIC was 31.3 µM (≈ 10.6 µg/mL).

What about the MIC [24] of the same compound?
Its MIC is greater than 10 µM.

What about the MIC [3] of the same compound?
Its MIC is 50 µM (≈ 16.9 µg/mL).

What about the MIC [27] of the same compound?
The MIC was greater than 10 µg/mL.

What about the MIC [5] of the same compound?
The MIC was greater than 62.5 µM.

And the MIC [6]?
The MIC was 31.3 µM (≈ 10.6 µg/mL).

What about the IC50 [7] of the same compound?
Its IC50 is 1400 nM.

What about the MIC [26] of the same compound?
Its MIC is less than 1.25 µM.

What about the MIC [28] of the same compound?
The MIC was less than 1.25 µg/mL.

What about the MIC [8] of the same compound?
Its MIC is 31.3 µM (≈ 10.6 µg/mL).

And the MIC [9]?
Its MIC is greater than 62.5 µM.

What about the Ki [29] of the same compound?
Its Ki is 1040 nM.
